Columns and labels:
Alopecurus myosuroides = test: Pre-emergence herbicidal effect; assay type: in vivo; conditions: 1280 g/ha, visual assessment after 3 weeks
Text: (§1) 1. Pre-Emergence Herbicidal Effect and Crop Plant Compatibility Seeds of monocotyledonous and dicotyledonous weed plants and crop plants are placed in wood-fiber pots in sandy loam and covered with soil. The inventive compounds, formulated in the form of wettable powders (WP) or as emulsion concentrates (EC), are then applied to the surface of the covering soil as an aqueous suspension or emulsion at a water application rate of 600 to 800 I/ha (converted) with addition of 0.2% wetting agent. After the treatment, the pots are placed in a greenhouse and kept under good growth conditions for the test plants. The damage to the test plants is assessed visually after a test period of 3 weeks by comparison with untreated controls (herbicidal activity in percent (%): 100% action=the plants have died, 0% action=like control plants). ABUTH: Abutilon theophrasti ALOMY: Alopecurus myosuroides

Abutilon theophrasti = test: Pre-emergence herbicidal effect; assay type: in vivo; conditions: 1280 g/ha, visual assessment after 3 weeks
Text: as §1

Echinochloa crus-galli = test: Post-emergence herbicidal effect; assay type: in vivo; conditions: 1280 g/ha, visual rating after about 3 weeks
Protocol: (§2) AMARE: Amaranthus retroflexus ECHCG: Echinochloa crus-galli 2. Post-Emergence Herbicidal Effect and Crop Plant Compatibility Seeds of monocotyledonous and dicotyledonous weed and crop plants are placed in sandy loam in wood-fiber pots, covered with soil and cultivated in a greenhouse under good growth conditions. 2 to 3 weeks after sowing, the test plants are treated at the one-leaf stage. The compounds according to the invention, formulated in the form of wettable powders (WP) or as emulsion concentrates (EC), are then sprayed as aqueous suspension or emulsion at a water application rate of 600 to 800 I/ha (converted) with the addition of 0.2% of wetting agent onto the green parts of the plants. After the test plants have been kept in the greenhouse under optimum growth conditions for about 3 weeks, the activity of the preparations is rated visually in comparison to untreated controls (herbicidal activity in percent (%): 100% activity=the plants have died, 0% activity=like control plants).

Viola tricolor = test: Post-emergence herbicidal effect; assay type: in vivo; conditions: 1280 g/ha, visual rating after about 3 weeks
Protocol: as §2, with “VIOTR: Viola tricolor” for “AMARE: Amaranthus retroflexus ECHCG: Echinochloa crus-galli”

Amaranthus retroflexus = test: Post-emergence herbicidal effect; assay type: in vivo; conditions: 1280 g/ha, visual rating after about 3 weeks
Protocol: as §2

Stellaria media = test: Post-emergence herbicidal effect; assay type: in vivo; conditions: 1280 g/ha, visual rating after about 3 weeks
Protocol: as §2, with “STEME: Stellaria media VERPE: Veronica persica” for “AMARE: Amaranthus retroflexus ECHCG: Echinochloa crus-galli”

Veronica persica = test: Post-emergence herbicidal effect; assay type: in vivo; conditions: 1280 g/ha, visual rating after about 3 weeks
Protocol: as §2, with “STEME: Stellaria media VERPE: Veronica persica” for “AMARE: Amaranthus retroflexus ECHCG: Echinochloa crus-galli”

[1] = logp (HCOOH), physicochemical characterization; conditions: HCOOH

Row | SMILES | herbicidal activity ALOMY (Alopecurus myosuroides) | herbicidal activity ABUTH (Abutilon theophrasti) | herbicidal activity ECHCG (Echinochloa crus-galli) | herbicidal activity VIOTR (Viola tricolor) | herbicidal activity AMARE (Amaranthus retroflexus) | herbicidal activity STEME (Stellaria media) | herbicidal activity VERPE (Veronica persica) | logp (HCOOH) [1]
1 | CCc1ccc2c(c1)C(Nc1cnc(S(C)(=O)=O)nc1C(=O)O)CCO2 (racemic) [compound 68] | 100% | 100% | 90% | 80% | – | – | – | –
2 | Cc1ccc2c(c1)[C@H](Nc1cnc(S(C)(=O)=O)nc1)[C@@H](C)C2 [compound 134] | 100% | 100% | 90% | 90% | 80% | 100% | 90% | –
3 | CCc1ccc2c(c1)C(Nc1cnc(S(C)(=O)=O)nc1)CCO2 (racemic) [compound 65] | 90% | 100% | 100% | – | – | 90% | – | wax-like; logp (HCOOH): 2.54; 1H-NMR (CDCl3, 400 MHZ, δ in ppm): 1.20 (t, 3H,
